Results on two compounds are retold here after patent publication US8623898B2, “Glycine transporter inhibiting substances” (Taisho Pharmaceutical Co., Ltd., priority 2009, dated 2014).

Like-named read-outs stand apart in the source and are kept apart here. Where only a bound is given, the exact number is not on record here.

Series [1] has as its target T1, human type 1 glycine transporter (GlyT1) (Homo sapiens, UniProt P48067).
T1 construct: Used in the experiment were T98G cells (glioma cells) developing a human type 1 glycine transporter (GlyT1); endogenous in cells; host or cells: T98G human glioma cells
T1 sequence (P48067 1-706): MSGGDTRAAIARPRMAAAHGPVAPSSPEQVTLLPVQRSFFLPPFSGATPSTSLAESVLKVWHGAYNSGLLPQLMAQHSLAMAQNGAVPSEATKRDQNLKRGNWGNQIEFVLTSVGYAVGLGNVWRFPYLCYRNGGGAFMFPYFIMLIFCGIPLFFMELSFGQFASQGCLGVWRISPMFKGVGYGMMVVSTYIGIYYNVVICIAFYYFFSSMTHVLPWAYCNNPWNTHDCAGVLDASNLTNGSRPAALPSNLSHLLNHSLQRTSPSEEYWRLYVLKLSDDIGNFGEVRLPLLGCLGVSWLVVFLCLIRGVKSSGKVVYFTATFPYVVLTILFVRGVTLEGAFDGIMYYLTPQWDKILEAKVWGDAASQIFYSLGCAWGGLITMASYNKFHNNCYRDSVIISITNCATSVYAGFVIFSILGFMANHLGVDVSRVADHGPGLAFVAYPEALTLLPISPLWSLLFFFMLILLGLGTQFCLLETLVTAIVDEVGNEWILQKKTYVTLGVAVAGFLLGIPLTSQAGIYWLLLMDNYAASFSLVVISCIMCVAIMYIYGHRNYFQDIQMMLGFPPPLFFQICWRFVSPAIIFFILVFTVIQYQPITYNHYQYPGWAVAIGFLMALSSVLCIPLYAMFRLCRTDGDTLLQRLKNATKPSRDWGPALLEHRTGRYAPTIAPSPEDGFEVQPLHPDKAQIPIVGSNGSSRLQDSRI
Nature of the series: Glycine uptake inhibition experiment ([3H] glycine uptake in T98G cells). In kind it is cell-based. The conditions noted are these: [3H] glycine 250 nM, read-out: IC50 (glycine uptake inhibiting activity). Here is the method:
A glycine uptake inhibition experiment was conducted in accordance with the method described in Neuron, 8, 927-935, 1992. Used in the experiment were T98G cells (glioma cells) developing a human type 1 glycine transporter (GlyT1). The T98G cells were seeded in a 96-well plate at a density of 2.0×10^4 cells per well and cultured overnight in a CO2 incubator. The test substance was first dissolved in a 100% DMSO solution and then dissolved in a 10 mM HEPES buffer solution (pH 7.4) supplemented with 150 mM sodium chloride, 1 mM calcium chloride, 5 mM potassium chloride, 1 mM magnesium chloride, 10 mM glucose, and 0.2% bovine serum albumin. After removing the cell culture medium, the test substance was subjected to a 10-min pretreatment. Thereafter, the test substance and [^3H] glycine (final concentration: 250 nM) were added to the cells and reaction was performed at room temperature for 15 minutes. After the end of the reaction, the extracellular fluid was aspirated with a manifold to remove the excess marker glycine present outside of the cells; thereafter, the cells were lysed with an aqueous solution of 0.5 M sodium hydroxide. The glycine content in the cells was determined by measuring the radioactivity in the cell lysate with a liquid scintillation counter. With the amount of glycine uptake in the presence of 10 μM ALX5407 being referred to as the nonspecific uptake, the amount of specific uptake was calculated by subtracting the amount of nonspecific uptake from the total amount of uptake in the absence of 10 μM ALX5407. In addition, glycine uptake inhibiting activity (IC50) was calculated from an inhibition curve for the concentration of the test substance ranging from 10^−9 to 10^−5 M.

The target of series [2] is T2, P-gp (Human MDR1) (Homo sapiens, UniProt P08183).
T2 construct: expressed in transfected cells; host or cells: LLC-GA5-COL 300 (LLC-PK1 pig kidney epithelial cells expressing human MDR1)
Nature of the series: Test for recognizability of P-gp substrate (LLC-GA5-COL 300 cells). In kind it is in vitro ADME. The conditions noted are these: 10 μM, criteria of Nature Reviews Drug Discovery (2010) 9, 215-236. The source says:
In order that drugs acting on the central nervous system will develop their efficacy, their passage from the blood to the brain is generally important. While various efflux transporters are present at the blood-brain barrier to control this passage of drugs, P-glylcoprotein (P-gp) is a typical example and inhibits the passage to the brain of any drugs that serve as the substrate for P-gp. Therefore, in the development of pharmaceuticals, nonrecognizability of a candidate drug as the substrate for P-gp is the key to its passage to the brain.
A test for recognizability of P-gp substrate was performed in accordance with a modified version of the methods described in J. Pharmacol. Exp. Ther. (1992) Vol. 263, No. 2, 840-845 and J. Biol. Chem. (1992) Vol. 267, No. 34, 24248-24252. […] A solution of an assay compound (a DMSO solution of the compound as diluted with HBSS and adjusted to a final concentration of 10 μM) was added to the donor side of the LLC-GA5-COL 300 cells and a prescribed amount of HBSS was collected from the acceptor side at given time intervals and the concentration of the assay compound in the collected sample was measured by LC-MS/MS. […]

Series [3] in a line: Membrane permeability experiment (PAMPA Evolution). In kind it is in vitro ADME. The settings on record: artificial lipid GIT-0, pH 4.0, 5.0, 6.2 and 7.4, marker metoprolol. On the procedure: In the development of pharmaceuticals, membrane permeability is an important factor to consider from the viewpoint of relationship with the bodily absorption of a medicament to be administered orally. Compounds having high membrane permeability are expected to feature satisfactory absorption by the intestinal tract (see Pharmaceutical Research (2002) Vol. 19, No. 7, 921-925.)
A membrane permeability test was conducted using PAMPA Evolution™ (pION INC.) in accordance with a modified version of the recommended protocol of pION INC. To be more specific, solutions of an assay compound (i.e., a DMSO solution of the compound as diluted by being added to system solutions that had been adjusted to prescribed pHs (4.0, 5.0, 6.2, and 7.4)) were prepared and added to the lower compartment (donor) of a sandwich plate having a lipid bilayer membrane formed of an artificial lipid (GIT-0). An acceptor sink buffer was added to the upper compartment (acceptor) and after the lapse of a prescribed period, the cumulative permeation of the compound was measured by performing UV spectroscopy on the solutions in the donor and acceptor, and the membrane permeability coefficient Pe (×10^−6 cm/sec) was calculated to assay the membrane permeability of the compound.
For orientation: The PAMPA barrier holds no transporters, so it reflects passive diffusion.

T2 sequence (P08183 whole entry): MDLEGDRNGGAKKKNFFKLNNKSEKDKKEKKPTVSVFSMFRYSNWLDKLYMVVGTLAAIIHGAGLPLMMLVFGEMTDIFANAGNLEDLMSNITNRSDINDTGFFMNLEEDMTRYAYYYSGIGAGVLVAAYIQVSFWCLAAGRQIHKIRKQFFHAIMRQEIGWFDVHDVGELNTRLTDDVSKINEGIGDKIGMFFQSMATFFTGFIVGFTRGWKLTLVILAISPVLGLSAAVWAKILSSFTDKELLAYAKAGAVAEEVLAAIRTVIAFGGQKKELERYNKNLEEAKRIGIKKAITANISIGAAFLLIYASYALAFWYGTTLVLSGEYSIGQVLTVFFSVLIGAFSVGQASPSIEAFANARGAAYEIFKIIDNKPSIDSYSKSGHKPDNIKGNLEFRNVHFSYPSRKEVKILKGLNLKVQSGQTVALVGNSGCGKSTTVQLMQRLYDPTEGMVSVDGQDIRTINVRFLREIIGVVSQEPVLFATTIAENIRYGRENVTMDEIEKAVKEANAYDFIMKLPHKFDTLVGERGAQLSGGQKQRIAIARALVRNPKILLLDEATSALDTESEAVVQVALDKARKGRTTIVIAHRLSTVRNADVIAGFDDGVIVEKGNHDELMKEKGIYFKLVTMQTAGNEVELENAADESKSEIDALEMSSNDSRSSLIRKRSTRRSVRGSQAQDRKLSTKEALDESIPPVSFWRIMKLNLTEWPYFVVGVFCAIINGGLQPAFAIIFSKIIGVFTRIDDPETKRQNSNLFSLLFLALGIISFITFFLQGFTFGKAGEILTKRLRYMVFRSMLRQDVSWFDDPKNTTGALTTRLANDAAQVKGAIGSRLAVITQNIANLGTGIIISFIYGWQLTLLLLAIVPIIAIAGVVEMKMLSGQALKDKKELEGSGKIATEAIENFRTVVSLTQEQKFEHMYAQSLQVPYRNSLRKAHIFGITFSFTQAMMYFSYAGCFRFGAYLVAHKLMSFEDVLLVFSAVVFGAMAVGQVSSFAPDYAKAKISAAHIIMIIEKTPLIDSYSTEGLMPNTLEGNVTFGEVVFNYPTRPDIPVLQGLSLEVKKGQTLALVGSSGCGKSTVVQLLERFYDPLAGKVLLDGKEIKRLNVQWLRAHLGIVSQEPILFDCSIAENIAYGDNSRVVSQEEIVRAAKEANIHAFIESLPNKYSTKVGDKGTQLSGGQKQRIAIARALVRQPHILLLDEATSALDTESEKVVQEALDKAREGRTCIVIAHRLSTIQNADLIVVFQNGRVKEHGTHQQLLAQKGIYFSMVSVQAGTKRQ

One may read the IC50 as the concentration that inhibits the measured activity by half. On to `Cn1cnc(C(=O)N(Cc2ccc(F)c(OC(F)(F)F)c2)C2CCOCC2)n1` [Compound 49], for which the IC50 in series [1] (15 min, room temperature) is 7.4 nM; in series [1] it was below 100 nM. The “recognizability as P-gp substrate (efflux ratio basal→apical / apical→basal)” value in series [2] is reported as “not recognizable as the substrate for P-gp”.
For the compound `Cn1cnc(C(=O)N(Cc2ccc(F)c(-c3cccc(C(F)(F)F)c3)c2)C2CCOCC2)n1` [Compound 95], the IC50 in series [1] (15 min, room temperature) is 18.1 nM; in series [1], below 100 nM. Moreover, in series [3], the “membrane permeability coefficient Pe compared with metoprolol” value is “higher Pe values than the high permeability marker compound metoprolol”.
